Test results from US8088772B2, “Sulfonamides and their use as a medicament” (The Genetics Company, Inc., priority 2006, dated 2012).

How the values were obtained:
βCatenin-BCL9 = experiment: ELISA based protein-protein interaction assay; type: binding; conditions: inhibition class of the βCatenin-BCL9 interaction
Protocol: In vitro ELISA-based Protein-protein Interaction Assay
Protein Production in Bacteria
cDNAs including the binding domains of Lgs and βCatenin were fused downstream of glutathione-S-transferase (GST) cDNA in pGEX-4T inducible bacterial expression vector (Pharmacia). Fusion proteins were produced in BL21 bacteria (e.g. Stratagene) following manufacturer's recommendation.
To isolate the produced fusions protein bacteria were lysed in sonication buffer (10 mM Tris HCl pH 8.0, 150 mM NaCl, 1 mM EDTA, 1.5% sarkosyl, 2% Triton-X-100, 1 mM DTT and protease inhibitors), followed by short sonication on ice (e.g. 3 times 20 seconds at middle power) and centrifugation. Cleared supernatants were incubated under gentle rotation with glutathione beads (Amersham Pharmacia) for 2 hrs at 4° C. Finally, beads were washed several time in washing buffer (20 mM Tris pH 8.0, 200 mM NaCl, 1 mM EDTA, 1 mM DTT, 1 mM MgCl2, 0.5% NP40), and stored in storage buffer (20 mM Tris pH 8.0, 200 mM NaCl, 1 mM EDTA, 1 mM DTT, 1 mM MgCl2, 10% glycerol, 0.5% NP40, and proteinase inhibitors). The quality of the preparations was checked by SDS-gel electrophoresis by standard methods well known by persons skilled in the art. […]

Wnt pathway = experiment: Cell Assay (CA): inhibition of Wnt activity in cancer cells, Tcf reporter gene; type: cell-based; conditions: inhibition class in the Cell Assay
Description: Inhibition of Wnt Activity in Cancer Cells
The effect of β-catenin/BCL9 inhibitors identified in the ELISA-based protein-protein interaction assay on the Wnt pathway can be evaluated in a cell culture system using a reporter gene responsive to the Tcf/Lef family of transcription factors or by quantitative analysis of Wnt target genes in appropriate cell lines.
A reporter gene is a construct which comprises a readily detectable or assayable gene such β-galactosidase, green fluorescent protein, chloramphenicol acetyltransferase or luciferase, linked in cis to a transcription factor response element and a minimal promoter. Depending on the expression vectors used, this protocol can be applied, e.g. for mammalian as well as for Drosophila cell lines. For instance, colon cancer cells with constitutively active Wnt pathway like DLD-1 or SW620 (ATCC) are a well suitable system. Hereby, a Tcf-4 driven luciferase reporter plasmid (i.e. TOP-FLASH, Upstate biotechnology, New York, USA) is transiently or stably transfected into cells known in the art. Any means for introducing genetic material into cells can be used, including but not limited to infection, electroporation or transfection. For instance, to introduce DNA into DLD-1 cells, a lipofection agent like the Lipofectamine transfection reagent (Life Technologies, Inc.) can be used. By transient transfection protocols, a second reporter gene, e.g. the renilla luciferase reporter plasmid pRL-SV40 (Promega Corporation, Madison USA), needs to be co-transfected to normalize for transfection efficiency. Drugs are added to the media 24 h after trans-fection (transient transfection) or 24 h after seeding of the cells (stably transfected cells). Cell extracts are prepared 24 to 48 h later and assayed for reporter gene activity as described by the manufacturer (eg. for luciferase activity: Promega Corporation). Compounds reducing reporter gene activity more than 50% compared to solvent alone treated cells are considered as hits. In parallel, toxicity can be assessed for instance by the yellow tetrazolium salt cell proliferation assay (MTT) assay.

SMILES	ELISA (βCatenin-BCL9)	CA (Wnt pathway)
CC(=O)Nc1ccc(S(=O)(=O)NNc2ccc([N+](=O)[O-])cc2S(=O)(=O)Nc2ccccc2Cl)cc1 [TGC0011575]	1 (0-20% inhibition)	3 (41-60% inhibition)
O=[N+]([O-])c1ccc(NNS(=O)(=O)c2ccc(Cl)cc2)c(S(=O)(=O)Nc2ccccc2Cl)c1 [TGC0011576]	3 (41-60% inhibition)	5 (81-100% inhibition)
CS(=O)(=O)c1ccc(S(=O)(=O)NNc2ccc([N+](=O)[O-])cc2S(=O)(=O)Nc2ccccc2Cl)cc1 [TGC0011577]	4 (61-80% inhibition)	1 (0-20% inhibition)
CC(=O)c1ccc(S(=O)(=O)NNc2ccc([N+](=O)[O-])cc2S(=O)(=O)Nc2ccccc2Cl)cc1 [TGC0011581]	2 (21-40% inhibition)	1 (0-20% inhibition)
COc1ccc(/C=N/Nc2ccc(N)cc2S(=O)(=O)Nc2ccccc2Cl)cc1OC [TGC0011584]	1 (0-20% inhibition)	3 (41-60% inhibition)
O=C(O)c1ccc(CNNc2ccc([N+](=O)[O-])cc2S(=O)(=O)Nc2ccccc2Cl)cc1 [TGC0011589]	5 (81-100% inhibition)	4 (61-80% inhibition)
COC(=O)c1ccccc1S(=O)(=O)Nc1ccccc1Cl [TGC0011601]	1 (0-20% inhibition)	1 (0-20% inhibition)
O=[N+]([O-])c1ccc(NNCc2ccc(F)cc2)c(S(=O)(=O)Nc2ccccc2Cl)c1 [TGC0012257]	1 (0-20% inhibition)	1.5
O=[N+]([O-])c1ccc(NNCc2ccc3nonc3c2)c(S(=O)(=O)Nc2ccccc2Cl)c1 [TGC0012260]	4.5	1.5
O=[N+]([O-])c1ccc(NNCc2cc(F)cc(F)c2)c(S(=O)(=O)Nc2ccccc2Cl)c1 [TGC0012266]	2.5	1.5
